In series [1] the target is T1, Type-2 angiotensin II receptor (Homo sapiens, UniProt P50052). Further: in other assays of this panel Not Active means under 50% inhibition at 10 µM.
T1 sequence (P50052 whole entry): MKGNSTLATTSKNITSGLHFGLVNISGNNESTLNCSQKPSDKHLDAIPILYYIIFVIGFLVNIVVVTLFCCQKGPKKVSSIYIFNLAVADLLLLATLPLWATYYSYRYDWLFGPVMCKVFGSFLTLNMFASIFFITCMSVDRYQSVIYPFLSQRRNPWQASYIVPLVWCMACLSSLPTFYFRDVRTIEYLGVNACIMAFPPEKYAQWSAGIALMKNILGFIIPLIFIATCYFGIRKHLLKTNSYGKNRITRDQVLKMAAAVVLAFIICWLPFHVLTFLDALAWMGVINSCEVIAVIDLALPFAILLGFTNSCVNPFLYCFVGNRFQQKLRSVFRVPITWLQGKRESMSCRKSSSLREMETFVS
The series is classed as cell-based. The conditions noted are these: cho-k1.

Series [2] addresses Sigma non-opioid intracellular receptor 1 (Homo sapiens, UniProt Q99720). Nature of the series: DRUGMATRIX: Sigma1 radioligand binding (ligand: [3H] Haloperidol). The conditions noted are these: Not Active = under 50% inhibition at 10 µM; for Ki: read-out: Ki. Type of series: cell membranes, Jurkat, Membrane.
For the next series, the target named is Melanocortin receptor 4 (Homo sapiens, UniProt P32245). Type of series: cell membranes, HEK293, Membrane. The conditions noted are these: hek293. Further: in other assays of this panel Not Active means under 50% inhibition at 10 µM.
For series [3], the target named is Protein kinase C alpha type (Homo sapiens, UniProt P17252). Type of series: cell-based. Conditions: sf9.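 Further: inhibition of PKCalpha kinase activity measured in an enzyme assay with histone as the phosphorylation substrate; in other assays of this panel Not Active means under 50% inhibition at 10 µM.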
Series [4] deals with Tyrosine-protein kinase Lck (Homo sapiens, UniProt P06239). Nature of the series: DRUGMATRIX: Protein Tyrosine Kinase, LCK enzyme inhibition (substrate: Poly(Glu:Tyr)). The series is classed as cell-based, Insect cells. Conditions: insect cells; Not Active = under 50% inhibition at 10 µM.
Another series addresses T2, Cytochrome P450 1A2 (Homo sapiens, UniProt P05177).
T2 sequence (P05177 whole entry): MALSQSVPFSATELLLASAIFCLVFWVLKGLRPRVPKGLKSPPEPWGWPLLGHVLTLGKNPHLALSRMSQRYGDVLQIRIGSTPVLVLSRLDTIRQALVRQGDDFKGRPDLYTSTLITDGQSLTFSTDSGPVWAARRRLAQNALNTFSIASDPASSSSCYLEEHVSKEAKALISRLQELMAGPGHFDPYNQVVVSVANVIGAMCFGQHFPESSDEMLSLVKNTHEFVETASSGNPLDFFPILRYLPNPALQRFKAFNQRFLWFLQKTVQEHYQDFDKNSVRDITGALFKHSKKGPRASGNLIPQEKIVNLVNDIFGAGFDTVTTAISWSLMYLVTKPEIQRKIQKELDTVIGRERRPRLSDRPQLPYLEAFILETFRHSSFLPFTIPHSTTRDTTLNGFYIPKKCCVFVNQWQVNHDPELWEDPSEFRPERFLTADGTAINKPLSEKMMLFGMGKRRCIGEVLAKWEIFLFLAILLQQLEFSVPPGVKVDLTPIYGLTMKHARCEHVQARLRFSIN
Conditions: bti-tn-5b1-4.

The nature of series [5]: DRUGMATRIX: Serotonin (5-Hydroxytryptamine) 5-HT3 radioligand binding (ligand: [3H] GR-65630). Type of series: cell membranes, Membrane. The conditions noted are these: hek293; Not Active = under 50% inhibition at 10 µM.

Usually IC50 stands for the midpoint of a concentration-inhibition curve. One may read the Ki as the equilibrium dissociation constant of an inhibitor or competing ligand from its target.

Tyrosine-protein kinase Lck, sequence (P06239 whole entry): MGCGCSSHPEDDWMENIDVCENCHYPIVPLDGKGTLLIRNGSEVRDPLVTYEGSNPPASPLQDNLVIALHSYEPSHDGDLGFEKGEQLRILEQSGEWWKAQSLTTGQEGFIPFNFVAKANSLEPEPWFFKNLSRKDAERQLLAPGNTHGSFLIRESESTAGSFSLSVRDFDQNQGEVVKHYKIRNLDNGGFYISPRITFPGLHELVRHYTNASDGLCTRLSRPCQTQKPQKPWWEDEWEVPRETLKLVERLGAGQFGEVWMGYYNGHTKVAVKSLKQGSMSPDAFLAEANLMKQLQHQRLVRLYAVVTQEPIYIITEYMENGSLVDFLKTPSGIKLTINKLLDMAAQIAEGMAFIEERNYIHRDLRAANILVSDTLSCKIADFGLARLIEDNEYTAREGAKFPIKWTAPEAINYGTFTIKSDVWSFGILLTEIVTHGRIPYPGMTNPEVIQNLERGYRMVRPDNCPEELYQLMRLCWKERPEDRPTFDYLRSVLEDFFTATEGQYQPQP
Melanocortin receptor 4, sequence (P32245 whole entry): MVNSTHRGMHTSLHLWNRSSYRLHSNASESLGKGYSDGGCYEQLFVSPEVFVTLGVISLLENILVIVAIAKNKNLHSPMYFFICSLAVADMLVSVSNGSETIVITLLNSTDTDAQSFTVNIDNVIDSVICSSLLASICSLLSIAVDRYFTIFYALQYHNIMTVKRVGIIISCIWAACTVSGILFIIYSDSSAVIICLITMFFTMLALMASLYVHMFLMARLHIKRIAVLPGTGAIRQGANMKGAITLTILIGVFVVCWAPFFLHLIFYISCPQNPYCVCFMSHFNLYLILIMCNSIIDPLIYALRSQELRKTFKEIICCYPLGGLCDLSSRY
Sigma non-opioid intracellular receptor 1, sequence (Q99720 whole entry): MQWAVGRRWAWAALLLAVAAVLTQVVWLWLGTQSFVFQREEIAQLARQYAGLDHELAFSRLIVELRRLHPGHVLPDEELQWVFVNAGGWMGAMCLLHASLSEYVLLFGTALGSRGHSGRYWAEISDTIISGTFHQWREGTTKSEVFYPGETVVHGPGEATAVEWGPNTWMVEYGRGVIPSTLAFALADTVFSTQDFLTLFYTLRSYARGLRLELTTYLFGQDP

Turning to `Cc1cc2c(OCC(CNC(C)(C)C)OC(=O)c3ccccc3)cccc2[nH]1` (stereo unspecified) [BOPINDOLOL], the IC50 entry (in series [1]; in series [2] (jurkat); against Melanocortin receptor 4; in series [3]; in series [4]; against Cytochrome P450 1A2) was “Not Active” throughout. In addition, the IC50 entry in series [5] is given as “Not Active”. The Ki entry (at Cytochrome P450 1A2; in series [5]) was “Not Active” each time.

For `Brc1c(NC2=NCCN2)ccc2nccnc12` [BRIMONIDINE], the IC50 entry (in series [1]; in series [2] (jurkat); at Melanocortin receptor 4; in series [3]; in series [4]; against Cytochrome P450 1A2) was “Not Active” in each case. The IC50 entry in series [5] is given as “Not Active”. Besides, the Ki result (at Cytochrome P450 1A2; in series [5]) was “Not Active” each time.

Turning to `CN(C)[C@@H]1C(O)=C(C(N)=O)C(=O)[C@@]2(O)C(O)=C3C(=O)c4c(O)ccc(Cl)c4[C@@](C)(O)[C@H]3C[C@@H]12` [CHLORTETRACYCLINE], the IC50 entry (in series [1]; in series [2] (jurkat); against Melanocortin receptor 4; in series [3]; in series [4]; against Cytochrome P450 1A2) was “Not Active” each time. Moreover, the IC50 result in series [5] is recorded as “Not Active”. Further, the inhibitory constant (Ki) result (on Cytochrome P450 1A2; in series [5]) was “Not Active” throughout.

For `CN/C(=N\CCSCc1nc[nH]c1C)NC#N` [CIMETIDINE], the 50% inhibitory concentration (IC50) entry (in series [1]; in series [2] (jurkat); against Melanocortin receptor 4; in series [3]; in series [4]; against Cytochrome P450 1A2) was “Not Active” each time. For the same compound, the IC50 result in series [5] was “Not Active”. In addition, the Ki entry (at Cytochrome P450 1A2; in series [5]) was “Not Active” throughout.

Regarding `COc1cc(N)c(Cl)cc1C(=O)NC1CCN(CCCOc2ccc(F)cc2)CC1OC` (stereo unspecified) [CISAPRIDE], the IC50 entry is “Not Active” in series [1]; 994 nM in series [2] (read-out: IC50); “Not Active” against Melanocortin receptor 4; “Not Active” in series [3]; “Not Active” in series [4]; “Not Active” at Cytochrome P450 1A2. Further, the IC50 result in series [5] was “Not Active”. For the same compound, the Ki in series [2] was 418 nM; on Cytochrome P450 1A2 it was “Not Active”; in series [5], “Not Active”.

Regarding `CCC(=O)O[C@]1(C(=O)CCl)[C@@H](C)C[C@H]2[C@@H]3CCC4=CC(=O)C=C[C@]4(C)[C@@]3(F)[C@@H](O)C[C@@]21C` [CLOBETASOL PROPIONATE], the IC50 result (in series [1]; in series [2] (jurkat); on Melanocortin receptor 4; in series [3]; in series [4]; against Cytochrome P450 1A2) was “Not Active” in each case. The IC50 result in series [5] was “Not Active”. Also, the Ki result (on Cytochrome P450 1A2; in series [5]) was “Not Active” each time.

Consider `O=C1CN=C(c2ccccc2Cl)c2cc([N+](=O)[O-])ccc2N1` [CLONAZEPAM], for which the IC50 result (in series [1]; in series [2] (jurkat); against Melanocortin receptor 4; in series [3]; in series [4]; at Cytochrome P450 1A2) was “Not Active” in each case. Also, in series [5], the IC50 entry was “Not Active”. Besides, the Ki entry (on Cytochrome P450 1A2; in series [5]) was “Not Active” each time.

For `Nc1ccn([C@@H]2O[C@H](CO)[C@@H](O)[C@@H]2O)c(=O)n1` [CYTARABINE], the 50% inhibitory concentration (IC50) entry (in series [1]; in series [2] (jurkat); on Melanocortin receptor 4; in series [3]; in series [4]; against Cytochrome P450 1A2) was “Not Active” each time. In series [5], the IC50 entry is given as “Not Active”. Further, the Ki result (at Cytochrome P450 1A2; in series [5]) was “Not Active” in each case.

Take `C[C@@H]1C[C@H]2[C@@H]3CCC4=CC(=O)C=C[C@]4(C)[C@@]3(F)[C@@H](O)C[C@]2(C)[C@H]1C(=O)CO` [DESOXIMETASONE]: the IC50 result (in series [1]; in series [2] (jurkat); at Melanocortin receptor 4; in series [3]; in series [4]; at Cytochrome P450 1A2) was “Not Active” throughout. In series [5], the IC50 result is on record as “Not Active”. The Ki entry (on Cytochrome P450 1A2; in series [5]) was “Not Active” each time.

For the compound `C[C@@H]1C[C@H]2[C@@H]3CCC4=CC(=O)C=C[C@]4(C)[C@@]3(F)[C@@H](O)C[C@]2(C)[C@@]1(O)C(=O)CO` [DEXAMETHASONE], the IC50 result (in series [1]; in series [2] (jurkat); against Melanocortin receptor 4; in series [3]; in series [4]; at Cytochrome P450 1A2) was “Not Active” throughout. Besides, the IC50 entry in series [5] is “Not Active”. For the same compound, the Ki entry (at Cytochrome P450 1A2; in series [5]) was “Not Active” in each case.

As to `CN(C)CC[C@@H](c1ccc(Cl)cc1)c1ccccn1` [DEXCHLORPHENIRAMINE], the IC50 result in series [1] is “Not Active”; in series [2] (read-out: IC50) it was 1660 nM; at Melanocortin receptor 4, “Not Active”; in series [3], “Not Active”; in series [4] it was “Not Active”; on Cytochrome P450 1A2 it was “Not Active”. For the same compound, the IC50 result in series [5] is listed as “Not Active”. Besides, the Ki was 697 nM in series [2], “Not Active” on Cytochrome P450 1A2 and “Not Active” in series [5].

On to `C[C@@H]1CC[C@@]2(OC1)O[C@H]1[C@@H](O)[C@H]3[C@@H]4CC[C@H]5C[C@@H](O[C@@H]6O[C@H](CO)[C@H](O[C@@H]7O[C@H](CO)C(O)[C@H](O[C@@H]8OC[C@@H](O)[C@H](O)[C@H]8O)[C@H]7O[C@@H]7O[C@H](CO)[C@H](O)[C@H](O[C@@H]8O[C@H](CO)[C@@H](O)[C@H](O)[C@H]8O)[C@H]7O)[C@H](O)[C@H]6O)[C@H](O)C[C@]5(C)[C@H]4CC[C@]3(C)[C@H]1[C@@H]2C` (stereo partly specified) [DIGITONIN], for which the IC50 result (in series [1]; in series [2] (jurkat); on Melanocortin receptor 4; in series [3]; in series [4]; on Cytochrome P450 1A2) was “Not Active” throughout. Also, the IC50 result in series [5] is on record as “Not Active”. The Ki result (on Cytochrome P450 1A2; in series [5]) was “Not Active” in each case.

On to `OC(CCCN1CCCCC1)(c1ccccc1)c1ccccc1` [DIPHENIDOL], for which the IC50 entry in series [1] was “Not Active”; in series [2] (read-out: IC50), 256 nM; against Melanocortin receptor 4, “Not Active”; in series [3], “Not Active”; in series [4], “Not Active”; at Cytochrome P450 1A2, “Not Active”. Also, the IC50 result in series [5] was “Not Active”. Moreover, the Ki was 108 nM in series [2], “Not Active” at Cytochrome P450 1A2 and “Not Active” in series [5].

Regarding `C[C@H]1O[C@@H](n2cc(F)c(=O)[nH]c2=O)[C@H](O)[C@@H]1O` [DOXIFLURIDINE], the IC50 result (in series [1]; in series [2] (jurkat); against Melanocortin receptor 4; in series [3]; in series [4]; against Cytochrome P450 1A2) was “Not Active” in each case. Moreover, in series [5], the IC50 result was “Not Active”. Moreover, the Ki entry (at Cytochrome P450 1A2; in series [5]) was “Not Active” in each case.

In the case of `Cn1c(=O)c2c(ncn2CC(O)CO)n(C)c1=O` (stereo unspecified) [DYPHYLLINE], the IC50 result (in series [1]; in series [2] (jurkat); at Melanocortin receptor 4; in series [3]; in series [4]; on Cytochrome P450 1A2) was “Not Active” throughout. Moreover, the IC50 result in series [5] is listed as “Not Active”. For the same compound, the Ki entry (on Cytochrome P450 1A2; in series [5]) was “Not Active” throughout.

`CC[C@H]1CN2CCc3cc(OC)c(OC)cc3[C@@H]2C[C@@H]1C[C@H]1NCCc2cc(OC)c(OC)cc21` [EMETINE]: the IC50 entry (in series [1]; in series [2] (jurkat); on Melanocortin receptor 4; in series [3]; in series [4]; on Cytochrome P450 1A2) was “Not Active” throughout. In addition, the IC50 entry in series [5] was “Not Active”. Moreover, the Ki result (on Cytochrome P450 1A2; in series [5]) was “Not Active” each time.

As for `C[C@@H](CO)NC(=O)[C@@H]1C=C2c3cccc4[nH]cc(c34)C[C@H]2N(C)C1` [ERGONOVINE], the IC50 result (in series [1]; in series [2] (jurkat); at Melanocortin receptor 4; in series [3]; in series [4]; against Cytochrome P450 1A2) was “Not Active” in each case. In series [5], the half-inhibitory concentration (IC50) result is “Not Active”. In addition, the Ki result (on Cytochrome P450 1A2; in series [5]) was “Not Active” throughout.

The values above are taken from ChEMBL document CHEMBL1909046, “DrugMatrix in vitro pharmacology data”.
